Here are results for 62 compounds from patent publication US20200288710A1, “SUBSTITUTED SULPHONAMIDES FOR CONTROLLING ANIMAL PESTS” (BAYER CROPSCIENCE AKTIENGESELLSCHAFT, priority 2016, published 2020).

In one experiment the test system is Myzus persicae. The experiment in a line: Myzus persicae oral test. The experiment is classed as in vivo. Particulars: 120 h, 20 ppm, oral uptake, after 5 days, read-out: efficacy. The essentials: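 Aphids of mixed ages imbibe, through parafilm, compound solution (acetone stock, water-diluted) combined with sugar-supplemented IPL41 medium to 200 μl. Efficacy read at day 5 as percent killed, 0% meaning no deaths.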
As to `Cc1ccccc1S(=O)(=O)NC(=O)c1cn(C)c(-c2ccccc2[N+](=O)[O-])n1` [Example 525], the pest or weed control at 20 ppm came to 100%. Same read-out and setting: next, `CCn1cc(C(=O)NS(=O)(=O)CC(F)(F)F)nc1-c1ccccc1Cl` [Example 77]: 90%; `CCn1cc(C(=O)NS(=O)(=O)c2ccccc2C(F)(F)F)nc1-c1ccccc1Cl` [Example 21]: 100%. On the same count and under the same terms, next, `COCCS(=O)(=O)NC(=O)c1cn(C)c(-c2c(F)cccc2F)n1` [Example 141]: 90%; `COc1cc(C(=O)NS(=O)(=O)c2ccccc2C)nn1-c1ccccc1Cl` [Example 276]: 100%.

On to `CCc1ccccc1-c1nc(C(=O)NS(=O)(=O)c2ccccc2OC)cn1C` [Example 498], for which the pest or weed control at 20 ppm worked out at 100%. The same measure, in the same setting: for `COc1ccc(Cl)c(S(=O)(=O)NC(=O)c2nc(-c3ccc(Cl)cc3)[nH]c2C)c1` [Example 618] the value was 100%.

Another experiment relates to Meloidogyne incognita. The experiment in a line: Meloidogyne incognita test. It is filed as in vivo. The following applies: 336 h, lettuce, after 14 days, read-out: nematicidal efficacy (formation of galls). The method, then:
Meloidogyne incognita Test Solvent: 125.0 parts by weight of acetone To produce a suitable active compound preparation, 1 part by weight of active compound is mixed with the stated amount of solvent and the concentrate is diluted with water to the desired concentration. Vessels are filled with sand, active compound solution, an egg/larvae suspension of the southern rootknot nematode (Meloidogyne incognita) and lettuce seeds. The lettuce seeds germinate and the plants develop. The galls develop on the roots. After 14 days, the nematicidal efficacy in % is determined by the formation of galls. 100% means that no galls were found; 0% means that the number of galls on the treated plants corresponds to the untreated control.
`Cc1ccccc1S(=O)(=O)NC(=O)c1cn(C)c(-c2ccccc2[N+](=O)[O-])n1` [Example 525]: the pest or weed control at 20 ppm turned out to be 100%. The same measure, in the same setting: next, `CCn1cc(C(=O)NS(=O)(=O)CC(F)(F)F)nc1-c1ccccc1Cl` [Example 77]: 90%. The same measure, in the same setting: next, `CCn1cc(C(=O)NS(=O)(=O)c2ccccc2C(F)(F)F)nc1-c1ccccc1Cl` [Example 21]: 90%. For the compound `COCCS(=O)(=O)NC(=O)c1cn(C)c(-c2c(F)cccc2F)n1` [Example 141], the pest or weed control at 20 ppm was 90%. As to `COc1cc(C(=O)NS(=O)(=O)c2ccccc2C)nn1-c1ccccc1Cl` [Example 276], the pest or weed control at 20 ppm is 100%. The same measure, in the same setting: next, `CCc1ccccc1-c1nc(C(=O)NS(=O)(=O)c2ccccc2OC)cn1C` [Example 498]: 90%; `COc1ccc(Cl)c(S(=O)(=O)NC(=O)c2nc(-c3ccc(Cl)cc3)[nH]c2C)c1` [Example 618]: 100%. The same measure, in the same setting: next, `Cc1ccccc1S(=O)(=O)NC(=O)c1cn(C)c(-c2ccccc2Oc2ccccc2)n1` [Example 485]: 90%. Turning to `Cc1ccccc1NS(=O)(=O)NC(=O)c1cn(C)c(-c2c(F)cccc2F)n1` [Example 504], the pest or weed control at 20 ppm was determined as 90%. Still for that read-out and setting: next, `Cc1cc(C(=O)NS(=O)(=O)c2ccccc2Br)nn1-c1ccccc1C(F)(F)F` [Example 292]: 90%. Still for that read-out and setting: next, `Cc1[nH]c(-c2c(F)cccc2Cl)nc1C(=O)NS(=O)(=O)c1ccccc1Cl` [Example 623]: 100%; `Cc1cccc(C2CCCC2)c1S(=O)(=O)NC(=O)c1cn(C)c(-c2c(F)cccc2F)n1` [Example 362]: 100%; `COc1cccc(OC(C)C)c1S(=O)(=O)NC(=O)c1cn(C)c(-c2c(F)cccc2F)n1` [Example 380]: 100%. Same read-out and setting: for `CC(C)c1ccccc1S(=O)(=O)NC(=O)c1cn(C)c(-c2c(F)cccc2F)n1` [Example 359] the value was 90%; for `COc1ccccc1S(=O)(=O)NC(=O)c1cn(C)c(-c2cc(Cl)ccc2Cl)n1` [Example 527], 90%; for `COc1ccccc1S(=O)(=O)NC(=O)c1cn(C)c(-c2ccccc2Oc2ccccc2)n1` [Example 486], 90%. For the compound `Cn1c(-c2ccccc2Cl)nc(C(=O)NS(=O)(=O)c2ccccc2Cl)c1Br` [Example 580], the pest or weed control at 20 ppm came out at 100%. Consider `Cn1cc(C(=O)NS(=O)(=O)c2ccccc2Cl)nc1-c1cccc2c1OC(F)(F)O2` [Example 541], for which the pest or weed control at 20 ppm was found to be 100%. The same measure, in the same setting: next, `CC(C)N(C)S(=O)(=O)NC(=O)c1cn(C)c(-c2c(F)cccc2F)n1` [Example 551]: 90%; `Cc1ccccc1S(=O)(=O)NC(=O)c1cn(C)c(-c2ccc(F)c(F)c2)n1` [Example 545]: 100%; `Cn1cc(C(=O)NS(=O)(=O)c2ccccc2Cl)nc1-c1ccccc1C#N` [Example 481]: 90%. Same read-out and setting: for `COc1ccccc1S(=O)(=O)NC(=O)c1cn(C)c(-c2cccc3ccccc23)n1` [Example 480] the value was 90%. Still for that read-out and setting: next, `CCSc1ccccc1-c1nc(C(=O)NS(=O)(=O)c2ccccc2C)cn1C` [Example 475]: 90%; `Cn1cc(C(=O)NS(=O)(=O)c2ccccc2Cl)nc1-c1cccs1` [Example 516]: 90%; `Cc1ccccc1-c1nc(C(=O)NS(=O)(=O)c2ccccc2)cn1C` [Example 50]: 90%.

In the case of `COc1ccccc1S(=O)(=O)NC(=O)c1cn(C)c(-c2cccc3c2OC(F)(F)O3)n1` [Example 543], the pest or weed control at 20 ppm worked out at 90%. On the same count and under the same terms, for `Cn1cc(C(=O)NS(=O)(=O)Nc2ccc(Cl)cc2)nc1-c1c(F)cccc1F` [Example 506] the value was 90%; for `O=C(NS(=O)(=O)c1ccccc1Cl)c1cc(-c2ncccc2Cl)n(-c2ccccc2Cl)n1` [Example 264], 100%; for `Cc1ccccc1S(=O)(=O)NC(=O)c1cn(C)c(-c2csc3ccccc23)n1` [Example 530], 90%. The same measure, in the same setting: for `CC(C)Cc1ccc(S(=O)(=O)NC(=O)c2cn(C)c(-c3c(F)cccc3F)n2)cc1` [Example 287] the value was 90%; for `COc1ccc(Cl)c(S(=O)(=O)NC(=O)c2nc(-c3ccccc3F)[nH]c2C)c1` [Example 627], 90%; for `Cn1cc(C(=O)NS(=O)(=O)c2ccccc2Cl)nc1-c1ccc(F)c(F)c1` [Example 544], 100%. Same read-out and setting: next, `CCNc1ccccc1S(=O)(=O)NC(=O)c1cn(C)c(-c2ccccc2Cl)n1` [Example 251]: 90%; `Cn1cc(C(=O)NS(=O)(=O)N2CCOCC2)nc1-c1c(F)cccc1F` [Example 505]: 90%. For `COc1ccc(Cl)c(S(=O)(=O)NC(=O)c2nc(-c3cccc(C(C)C)c3)[nH]c2C)c1` [Example 621], the pest or weed control at 20 ppm is 90%.

As for `Cc1ccccc1S(=O)(=O)NC(=O)c1nc(-c2c(F)cccc2F)nn1C` [Example 410], the pest or weed control at 20 ppm turned out to be 90%. The same measure, in the same setting: for `CCc1[nH]c(-c2cccc(Cl)c2)nc1C(=O)NS(=O)(=O)c1ccccc1C` [Example 129] the value was 90%; for `Cc1[nH]c(-c2ccc(Cl)c(Cl)c2)nc1C(=O)NS(=O)(=O)c1ccccc1Cl` [Example 614], 100%. On to `CCOc1cccc(C(C)C)c1S(=O)(=O)NC(=O)c1cn(C)c(-c2c(F)cccc2F)n1` [Example 384], for which the pest or weed control at 20 ppm came out at 90%.

Regarding `COc1ccccc1S(=O)(=O)NC(=O)c1cn(C)c(-c2ccccc2-c2ccccc2)n1` [Example 534], the pest or weed control at 20 ppm was determined as 90%. As for `COc1ccccc1S(=O)(=O)NC(=O)c1cn(C)c(-c2ccncc2)n1` [Example 487], the pest or weed control at 20 ppm is 90%. Consider `CCc1[nH]c(-c2c(F)cccc2F)nc1C(=O)NS(=O)(=O)c1cc(OC)ccc1Cl` [Example 246], for which the pest or weed control at 20 ppm turned out to be 90%.

With `Cn1cc(C(=O)NS(=O)(=O)c2ccccc2Cl)nc1-c1csc2ccccc12` [Example 522], the pest or weed control at 20 ppm is 90%.

Turning to `Cc1[nH]c(-c2ccccc2F)nc1C(=O)NS(=O)(=O)c1ccccc1Cl` [Example 626], the pest or weed control at 20 ppm amounted to 90%. On the same count and under the same terms, for `Cc1ccccc1S(=O)(=O)NC(=O)c1cc(-c2ccccc2Cl)n(-c2ncccc2Cl)n1` [Example 261] the value was 90%; for `Cc1[nH]c(-c2ccc(F)cc2F)nc1C(=O)NS(=O)(=O)C(C)C` [Example 622], 90%; for `O=C(NS(=O)(=O)c1c(Cl)cccc1Cl)c1cc(-c2ccccc2Cl)n(-c2ncccc2Cl)n1` [Example 263], 100%. Same read-out and setting: for `Cn1cc(C(=O)NS(=O)(=O)Nc2ccccc2)nc1-c1c(F)cccc1F` [Example 507] the value was 90%; for `Cc1ccccc1S(=O)(=O)NC(=O)c1cn(C)c(-c2ccccc2C(C)C)n1` [Example 473], 90%. Regarding `Cn1cc(C(=O)NS(=O)(=O)c2ccccc2Cl)nc1-c1ccc(Cl)c(Cl)c1` [Example 535], the pest or weed control at 20 ppm is 100%. Same read-out and setting: next, `Cc1ccc(C(C)C)cc1S(=O)(=O)NC(=O)c1cn(C)c(-c2c(F)cccc2F)n1` [Example 396]: 90%; `COc1ccccc1S(=O)(=O)NC(=O)c1nc(-c2c(F)cccc2F)nn1C` [Example 409]: 90%; `CCc1[nH]c(-c2cc(Cl)cc(Cl)c2)nc1C(=O)NS(=O)(=O)c1ccccc1Cl` [Example 254]: 90%. Same read-out and setting: next, `COc1cccc(C(C)C)c1S(=O)(=O)NC(=O)c1cn(C)c(-c2c(F)cccc2F)n1` [Example 377]: 90%; `CCc1[nH]c(-c2ccc(F)cc2F)nc1C(=O)NS(=O)(=O)c1cc(OC)ccc1Cl` [Example 244]: 90%. On the same count and under the same terms, next, `COc1ccccc1S(=O)(=O)NC(=O)c1cn(C)c(-c2ccc(F)c(F)c2)n1` [Example 546]: 100%; `Cn1cc(C(=O)NS(=O)(=O)c2cc(Cl)c(Cl)s2)nc1-c1c(F)cccc1F` [Example 355]: 90%; `COc1ccc(C(C)(C)C)cc1S(=O)(=O)NC(=O)c1cn(C)c(-c2c(F)cccc2F)n1` [Example 392]: 90%.

Take `Cn1cc(C(=O)NS(=O)(=O)c2ccccc2OC(C)(C)C)nc1-c1c(F)cccc1F` [Example 376]: the pest or weed control at 20 ppm is 90%. On the same count and under the same terms, next, `COc1ccc(Cl)c(S(=O)(=O)NC(=O)c2c(Cl)nc(-c3ccccc3Cl)n2C)c1` [Example 203]: 100%; `Cn1cc(C(=O)NS(=O)(=O)c2c(Cl)cccc2Cl)nc1-c1c(F)cc(F)cc1F` [Example 4]: 90%; `CCc1[nH]c(-c2ccc(F)c(F)c2)nc1C(=O)NS(=O)(=O)c1ccccc1Cl` [Example 471]: 90%.
